In patent US8188100B2, “Adenosine derivatives as A2A receptor agonists” (Novartis AG, priority 2006, dated 2012) one finds Ki data, which are given here for one molecule.

The target of this assay is adenosine A2A receptor (Homo sapiens, UniProt P29274). As to the kind of experiment: adenosine A2A receptor agonist assay (method of Murphree et al.). The assay is classed as binding. The note with it: method described by Murphree et al., Mol Pharmacol, Vol. 61, pp. 455-462 (2002). The source says:
Compounds of formula (I) and their pharmaceutically acceptable salts are useful as pharmaceuticals. In particular, they activate the adenosine A2A receptor, i.e., they act as A2A receptor agonists.

Sequence of adenosine A2A receptor (P29274 whole entry): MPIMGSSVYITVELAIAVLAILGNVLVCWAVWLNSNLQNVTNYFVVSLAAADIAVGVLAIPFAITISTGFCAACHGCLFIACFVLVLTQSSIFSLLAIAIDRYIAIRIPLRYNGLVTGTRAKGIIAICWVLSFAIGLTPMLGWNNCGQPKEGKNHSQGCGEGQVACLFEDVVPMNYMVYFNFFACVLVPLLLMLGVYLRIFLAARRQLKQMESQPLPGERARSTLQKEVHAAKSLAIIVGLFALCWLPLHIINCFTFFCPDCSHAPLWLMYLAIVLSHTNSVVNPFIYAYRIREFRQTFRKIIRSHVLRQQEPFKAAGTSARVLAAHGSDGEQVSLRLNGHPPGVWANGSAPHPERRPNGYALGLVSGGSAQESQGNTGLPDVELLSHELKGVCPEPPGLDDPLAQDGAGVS

Usually Ki stands for the dissociation constant of the complex between target and ligand, obtained from inhibition or displacement. The low end stands for tighter binding, the high end for weaker binding. Molecule `CCC(=O)N[C@H]1C[C@@H](n2cnc3c(NCC(c4ccccc4)c4ccccc4)nc(N4CC[C@@H](Nc5nc(Cl)nc6c5ncn6[C@@H]5C[C@H](NC(=O)CC)[C@@H](O)[C@H]5O)C4)nc32)[C@H](O)[C@@H]1O` [Example 1, {(1S,2R,3S,4R)-4-[2-{(R)-3-[2-Chloro-9-((1R,2S,3R,4S)-2,3-dihydroxy-4-propionylamino-cyclopentyl)-9H-purin-6-ylamino]-pyrrolidin-1-yl}-6-(2,2-diphenyl-ethylamino)-purin-9-yl]-2,3-dihydroxy-cyclopentyl}-propionamide] returned an inhibition constant Ki of 760 nM.
